Row | SMILES | melting point [°C]
1 | O=C1Nc2c(Cl)cccc2C1(O)c1ccccc1 (stereo unspecified) | 154 to 156
2 | CN1CCN(c2nc3sc4c(NCc5cccnc5)ncnc4c3c3c2CCC(C)(C)C3)CC1 | 210 to 212
3 | CCCS(=O)(=O)c1cccnc1S(=O)(=O)NC(=O)Nc1nc(OC)cc(OC)n1 | 168 to 170
4 | O=C1CC(c2cccc(-c3nc(CO)cs3)c2)=Nc2ccc(-n3cccc3)cc2N1 | 238 to 240
5 | O=C(c1ccccc1)c1nc2cc(C(c3ccccc3)n3ccnc3)ccc2[nH]1 (stereo unspecified) | 223
6 | COc1cc2c(cc1Cl)C(C)(C)C(CC=O)C2=O (racemic) | 102 to 103
7 | Cc1nc(N2CCC(c3ccc(F)cc3)CC2)c([N+](=O)[O-])c(=O)n1CCCCO | 154 to 156
8 | CC(=O)c1ccc(N2C(=O)C(=O)N(c3cccc(Cl)c3)C2=O)cc1 | 148
9 | CCCCc1nn(-c2cc(NC(=O)CC)ccc2Cl)c(=O)n1Cc1ccc(-c2ccccc2S(=O)(=O)NC(=O)c2cc(Cl)ccc2Cl)cc1F | 169 to 172
10 | CCCCCCCCCCCCCCOc1ccc2c(C)cc(=O)oc2c1 | 61 to 62
11 | COc1ccc2c(CCC(=O)O)nnc(-c3nccs3)c2c1 | 228 to 229
12 | CC(CC(=O)O)(C(=O)O)c1ccc(F)cc1 (stereo unspecified) | 149 to 152
13 | CCCCc1c2c(nc3cc(F)ccc13)-c1cc3c(c(=O)n1C2)COC(=O)CC3(O)CC (stereo unspecified) | 235 to 236
14 | O=C(O)COCC(=O)NCCCCCCCNC(=O)OCc1ccccc1 | 74 to 74.5
15 | CCCCCCCCCCCCCCCCCC(=O)NCCOC(=O)CCc1cc(C(C)(C)C)c(O)c(C(C)(C)C)c1 | 52 to 55
16 | c1ccc(-c2cc3c(nn2)-c2ccccc2CN3)cc1 | 250 to 252
17 | CC(=O)OCC1OC(n2cc(F)c(=O)[nH]c2=O)CC1OCc1ccccc1 (stereo unspecified) | 87 to 88
18 | Nc1ccc(OC23CC4CC(CC(C4)C2)C3)cc1 | 172 to 175
19 | O=c1c2c(Cc3ccsc3)n[nH]c2c2cccnc2n1-c1cccc(OC(F)(F)F)c1 | 247 to 251
20 | Cc1cc(C[C@@H](NC(=O)c2ccc(F)c3ccccc23)[C@@H](O)c2ccc(F)cc2)cc(OC(F)(F)C(F)F)c1 (racemic) | 189 to 190
21 | CC1(C)C(C=C(Cl)Cl)C1C(=O)OC(c1cccc(Oc2ccc(F)cc2)n1)C(F)(F)F (stereo unspecified) | 69 to 72
22 | Cc1cccc(NC(=O)NC2CN(Cc3ccccc3)c3ccccc3N(CC(=O)c3ccccc3C)C2=O)c1 (stereo unspecified) | 169 to 172
23 | Cc1cc([N+](=O)[O-])ccc1NC(=O)c1cc(C(C)(C)C)ccc1O | 202 to 204
24 | COc1cc(C=CC(=O)c2cccc(N(C)C)c2)cc(OC)c1 | 81.8 to 82.6

Row | SMILES | melting point [°C]
25 | CC(=O)OC1(C(=O)CO)CCC2C3CC(C)C4=CC(=O)C=CC4(C)C3C(O)CC21C (stereo unspecified) | 198 to 201
26 | COC(=O)c1c(N)c2ccccc2[nH]c1=O | 236
27 | CCOC(=O)c1ccc(OCCCCCCCCCCC(C(=O)CC)C(=O)CC)cc1 | 45 to 46
28 | Cc1c(-c2ccccc2)nc(C(F)(F)F)oc1=O | 70
29 | Cc1cccc(-c2n[nH]cc2-c2ccnc(-c3ccc(C(=O)NC4CCOCC4)cc3)c2)n1 | 148
30 | CCOCc1cc2cccc(OC)c2o/c1=N\c1ccccc1 | 88 to 90
31 | Cn1c(=O)n(Cc2ccc3c(c2)OCO3)c(=O)c2cc(C(=O)NCc3ccc4c(c3)OCO4)ccc21 | 198
32 | CC1Cc2c(C#N)cccc2C1=O (stereo unspecified) | 101 to 102
33 | CCOC(=O)c1sc(Oc2ccc(NS(=O)(=O)c3ccc(C)cc3)cc2)c2c1CCc1cnn(C)c1-2 | 201 to 202
34 | CCCCC1(N(C)C)CCC(c2[nH]c3ccc(F)cc3c2C)(c2[nH]c3ccccc3c2C(COC(N)=O)c2ccccc2)CC1 (stereo unspecified) | 101 to 105
35 | CCCCCCCCCCCCCCCCCCN(C)CC(O)CO (stereo unspecified) | 59
36 | CN1CCN(C(=O)OC2c3ccccc3C(=O)N2c2ccc3ccc(C#N)nc3n2)CC1 (stereo unspecified) | 266 to 268
37 | CCCCc1nc2c(N)nc3ccccc3c2n1CCCCN1CCCS1(=O)=O | 173 to 176
38 | COC(=O)[C@H](Cc1ccc(O[Si](C)(C)C(C)(C)C)cc1)NC(=O)Nc1n[nH]c(=S)s1 | 139 to 142
39 | N#CCCNC(=O)c1cccc(-c2ccc3c(c2)C(NCc2ccc(Cl)cc2Cl)CC3)c1 (stereo unspecified) | 126 to 130
40 | CC(C)n1nc(COc2ccccc2CC(=O)O)cc1OCc1ccc2ccccc2n1 | 116 to 117
41 | Oc1nc2ccnn2c2ncccc12 | > 300
42 | N#Cc1cc([N+](=O)[O-])ccc1N1CCN(Cc2ccccc2)CC1 | 124
43 | COc1ccc(CCn2ccc3ccc(-c4cccc(C(=O)NCCN(C)C)c4)nc32)cc1OC | 97 to 98
44 | c1cc2c3c(cccc3c1)C(NCCCCCCCCCCCCn1ccnc1)=N2 | 95 to 97
45 | COC(=O)C[C@H]1COS(=O)(=O)N1C(=O)OCC1c2ccccc2-c2ccccc21 | 138 to 140
46 | O=C(C=Cc1ccncc1)C=Cc1ccncc1 | 145 to 146
47 | Cc1ccc(C(=O)NC(NC(=S)Nc2ccc(Cl)nc2)C(F)(F)F)cc1 (stereo unspecified) | 199 to 200
48 | CCN(C(=O)NC)c1ccc(Cl)nc1 | 135 to 136

Row | SMILES | melting point [°C]
49 | CN1C(=O)N(C[C@H](CO)[C@@H](CC2CCCC2)C(=O)N2CCCCC2)C(=O)C1(C)C | 92 to 95
50 | COc1ccc(-c2cc3c(N4CCOCC4)nnc(N4CCOCC4)c3c(C)n2)cc1 | 206 to 209
51 | Cc1cc(C)n(-c2nc(-c3ccc(Cl)cc3)c(CCC(=O)O)o2)n1 | 201 to 202
52 | COc1cccc(Cl)c1CBr | 44 to 47
53 | CN1C(=O)N2CCSC2(c2ccccc2)C1=O (stereo unspecified) | 100 to 102
54 | CCCc1c(OCCCOc2cc(O)c(-c3ccc(F)cc3)cc2CC)cccc1Oc1cc(F)ccc1C(=O)O | 62 to 64
55 | CC(N(C(=O)c1ccc(C(F)(F)F)cc1)[C@H](C)C(=O)O)[C@](O)(Cn1cncn1)c1ccc(F)cc1F (mixture of isomers) | 219 to 221
56 | COc1ccc(C2=NN(C(C)C)C(=O)[C@H]3CCCC[C@@H]23)cc1OC (relative stereo) | 79 to 81
57 | CCN(C(=O)C1CC1)c1cn(-c2cccnc2)nc1Cl | 111 to 119
58 | CON=C(C)C(=NOC)C(C)=NOCc1ccccc1CON=CC(=O)OC | 105
59 | CCc1coc2c(-c3ccc(S(C)(=O)=O)cc3)c(-c3ccc(F)cc3)nn12 | 205 to 208
60 | COc1ccc(Br)c(CN(CC(F)(F)F)C(=O)OC(C)(C)C)c1 | 86 to 89
61 | COc1ccccc1CNc1ccc2cc(Nc3cccc(C)n3)ccc2n1 | 134
62 | COc1cccc(CNC(=O)c2nc3scc(COCc4ccc(C(=O)O)cc4)c3c(=O)[nH]2)c1 | 229 to 230
63 | COc1ccc(-c2cnc(-c3ccc(Cl)cc3)nc2-c2ccc(OC)cc2)cc1 | 151 to 153
64 | Cc1c(-c2ccc3oc(=O)n(C)c3c2)nc2c(O)cccn12 | > 280
65 | CC(C)(S)CNC(=O)c1ccccc1-c1ccccc1C(=O)O | 150 to 153
66 | CC(C)[C@H](NC(=O)[C@@H]1CCCN1C(=O)[C@@H](NC(=O)Cn1ccc(=O)n(CC(=O)O)c1=O)C(C)C)C(=O)c1nc2ccccc2o1 | 135 to 140
67 | CSC(C)=NOC(=O)N(C)SN(C)C(=O)ON=C(C)C(C)=NOC(=O)N(C)SN(C)C(=O)ON=C(SC)C(=O)N(C)C | 87 to 110
68 | Cn1c2ccccc2c2c3c(ccc21)C(=O)OC3=O | 153
69 | Cc1cc(-c2ccc(C(F)(F)F)cc2)cn2c(-c3nc(-c4ccc(S(N)(=O)=O)cc4)no3)cnc12 | 290
70 | CCn1ncc2c(Cl)c(C=O)cnc21 | 89 to 90
71 | CCOC(=O)C1=C(COC)NC(COC)=C(C(=O)OCC)C1c1ccccc1C(F)(F)F | 133 to 134
72 | O=[N+]([O-])c1ccc(Oc2ccccc2-c2ccccc2Oc2ccc([N+](=O)[O-])cc2)cc1 | 158

Row | SMILES | melting point [°C]
73 | Oc1cccc(-c2n[nH]c3c2Cc2ccccc2-3)c1 | 302 to 304
74 | COC(F)(F)C(F)(F)C1(C(F)(F)C(F)(F)OC)OCCO1 | 30 to 40
75 | CCOC(=O)N1CCC(=C2c3ccc(F)cc3CCc3cccnc32)CC1 | 116 to 118
76 | COC(=O)c1ccc2cc(CCC=O)oc2c1 | 57 to 58
77 | O=C(Nc1ccc(-n2nc(C(F)(F)F)cc2C(F)(F)F)cc1)c1ccccc1C(F)(F)F | 133 to 135
78 | O=C1CCCN(C(=O)c2ccc(Cl)cc2)C(=O)CCc2cc(Cl)ccc21 | 141 to 143
79 | Cc1cc(-c2ccc(Cl)cc2)nc(-n2cnc(-c3cccc(S(C)(=O)=O)c3)c2)n1 | 233
80 | CCC(C)(CC)c1ccc(=O)[nH]n1 | 97 to 99
81 | c1ccc(-c2nnc3cc(-c4cccnc4)c(OCc4ccccn4)nn23)cc1 | 206
82 | CC(=O)N(c1ccc(O)cc1)C(C)C | 152 to 153
83 | Nc1nc[nH]c1-c1n[nH]c(-c2ccc(-c3ccccc3)cc2)n1 | 230
84 | COC(=O)CCCc1nnc(-c2nccs2)c2cc(OC)ccc12 | 136 to 137
85 | Cc1cccc(-c2[nH]nc(N3CCN(C)CC3)c2-c2ccncc2)c1 | 262
86 | c1ccc2c(C3CN4CCC3CC4)c[nH]c2c1 (stereo unspecified) | 214 to 216
87 | COCOc1c(C)cc(-c2ccc(C(=O)O)cc2)cc1C | 153 to 154
88 | c1cc2c3c(cccc3c1)C(NOCCCCn1ccnc1)=N2 | 126 to 128
89 | Oc1ccc(-c2cc(S)n3nccc3n2)cc1O | > 280
90 | COc1cc(F)ccc1-c1ccc(S(=O)(=O)N2c3ccccc3CC2C(=O)NCCOc2ccc(C(=O)O)c(F)c2)cc1 (stereo unspecified) | 88 to 95
91 | NC(=O)N(O)CCNC(=O)c1ccc(-c2ccccc2)cc1 | 160 to 162
92 | COC(=O)c1cc(N)c(C#N)s1 | 187 to 189
93 | Cc1c(N2C[C@@H](N)C(C)(C)C2)c(F)c(N)c2c(=O)c(C(=O)O)cn(C3CC3)c12 | 192 to 193
94 | ClCc1ccc(-c2ccccc2)nc1 | 95 to 96
95 | CC1CC(=O)NN=C1c1ccc(NCC(C)(C)[N+](=O)[O-])cc1 (stereo unspecified) | 187 to 189
96 | NC1C(=O)Nc2ccccc2SC1Cc1ccccc1 (stereo unspecified) | 223 to 224
